Data published in US20070184490A1, “Neuronal nicotinic receptor ligands and their use” (priority 2006, published 2007).

Experiments:
[1] = tested on: α4β2, α3β4, or α3β2 NNR subtypes; assay: ion channel flux in cells expressing NNR subtypes; format: cell-based
Text: One method for assessing ion channel flux is via activation of ion flux into a cell expressed with recombinant α4β2, α3β4, or α3β2 NNR subtypes. Alternatively, a native cell line that expresses NNRs also can be suitable. The method can be accomplished under any suitable binding conditions. Examples of suitable binding conditions for [^3H]-cytisine binding have been described in the art, for example in at least U.S. Pat. Nos. 6,403,575 and 6,133,253, the procedures of which are herein incorporated by reference in their entirety. Data obtained from such ion channel flux assays can be evaluated to determine percent maximal nicotinic response (%), which directly correlates to percent maximal agonist efficacy.
Cells of IMR-32 human neuroblastoma clonal cell line (ATCC, Rockville, Md., USA) were maintained in a log phase of growth according to established procedures. Experimental cells were seeded at a density of 500,000 cells/mL into a 24-well tissue culture dish. Plated cells were allowed to proliferate for at least 48 hours before loading with 2 μCi/mL of ^86Rb^+ (35 Ci/mmol) overnight at 37° C. The ^86Rb^+ efflux assays were performed according to previously published protocols (Lukas, R. J., J. Pharmacol. Exp. Ther., 265, 294-302, 1993) except serum-free Dulbecco's Modified Eagle's medium was used during the ^86Rb^+ loading, rinsing, and agonist-induced efflux steps. […]

[2] = tested on: adults with ADHD; assay: pilot study: computerized cognitive assessment battery; format: in vivo, human
Description: Raters for the CAARS were trained and certified prior to the start of the study. Investigator-administered CAARS, CGI-ADHD-S, Hamilton Anxiety Scale (HAM-A) (Hamilton 1959), and Hamilton Depression Scale (HAM-D) (Hamilton 1960) were administered to subjects at baseline and at the completion of each treatment period (Days 14, 28, 42, and 56). CMRS, HAM-A, and HAM-D ratings were based on the previous seven days. After being trained, subjects completed a computerized cognitive assessment battery (Simpson et al 1989), which was amended to include the Conner's Continuous Performance Test (Conners 1995) and the Stroop Color Word Test (Jensen and Rohwer 1966), at baseline and at the completion of each treatment period. Attentional tasks (simple and choice reaction time, digit vigilance), selective attention (Conner's CPT), working memory tasks (numeric and spatial working memory, rapid visual information processing), episodic secondary memory (immediate and delayed word recall, word and picture recognition), motor control tasks (tracking), and executive function (the Stroop effect) were among the items assessed.
The primary efficacy endpoint was the CAARS total ADHD symptom score (sum of Inattention and Hyperactivity/Impulsivity scores) obtained on the last day of each treatment period. Treatment differences were assessed using an analysis of variance (ANOV A) model with fixed terms fitted for treatment, period, and sequence and a random effect for subjects-within-sequence. […] There were no corrections for multiple comparisons in this proof-of-concept study. Statistical tests of efficacy were one-sided; p-values ≦0.050 were considered statistically significant, and those between […] indicated a statistical trend.

[3] = pilot study: population PK plasma concentrations at steady state; format: in vivo, human
Description: Blood samples for pharmacokinetic analysis were taken at 0, 1, 2, 4, and 8 hours on Day 1 and at approximately 2 hours post-dose on the last day of each dosing period. The blood samples were immediately stored at 4° C. or below. The blood samples were centrifuged within one hour of collection using a refrigerated centrifuge to separate the plasma. The plasma samples were transferred using plastic pipettes into plastic vials. The plasma samples were frozen at −20° C. within one hour from centrifugation and remained frozen until shipped to Abbott Laboratories for analysis.
Due to limited pharmacokinetic sampling timepoints, trough and average concentrations were estimated using a non-linear mixed-effect pharmacokinetic modeling approach with NONMEM software Version V).

[4] = pilot study: tolerability and safety; format: in vivo, human; conditions: for Adverse event Headache, subjects reporting / Adverse event Increased appetite, subjects reporting / Adverse event Nervousness, subjects reporting / Adverse event Pain, subjects reporting / Adverse event Somnolence, subjects reporting: N=11
Description: Safety was evaluated by spontaneous report of adverse events; in addition, laboratory data (hematology, chemistry, urinalysis), vital signs, and electrocardiograms ([…]) were completed at baseline and at the end of each treatment period.

[5] = Phase 1 multiple dose human study; format: in vivo; conditions: 5 to 40 mg twice daily
[6] = target: human α4 β2 NNRs (Homo sapiens, UniProt P17787+P43681); assay: binding to human α4β2 NNRs in vitro
[7] = animal models; U-shaped dose-response; cited from earlier work

human α4 β2 NNRs, sequence (P43681 29-627 limits assumed): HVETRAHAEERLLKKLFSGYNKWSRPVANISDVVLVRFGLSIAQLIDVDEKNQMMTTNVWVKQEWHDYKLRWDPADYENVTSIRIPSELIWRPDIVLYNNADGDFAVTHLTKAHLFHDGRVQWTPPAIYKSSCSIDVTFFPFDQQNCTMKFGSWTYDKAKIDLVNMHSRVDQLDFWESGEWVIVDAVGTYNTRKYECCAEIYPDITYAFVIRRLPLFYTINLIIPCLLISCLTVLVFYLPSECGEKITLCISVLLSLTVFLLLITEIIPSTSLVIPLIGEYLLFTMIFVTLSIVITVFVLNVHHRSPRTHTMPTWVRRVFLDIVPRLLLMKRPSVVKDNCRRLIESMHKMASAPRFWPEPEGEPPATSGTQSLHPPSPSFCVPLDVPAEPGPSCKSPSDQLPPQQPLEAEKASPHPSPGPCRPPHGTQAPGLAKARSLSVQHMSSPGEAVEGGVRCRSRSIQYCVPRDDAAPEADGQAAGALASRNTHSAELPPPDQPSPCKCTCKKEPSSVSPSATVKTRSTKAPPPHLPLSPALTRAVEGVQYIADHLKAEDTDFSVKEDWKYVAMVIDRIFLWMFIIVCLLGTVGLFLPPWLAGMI
human α4 β2 NNRs, sequence (P17787 26-502): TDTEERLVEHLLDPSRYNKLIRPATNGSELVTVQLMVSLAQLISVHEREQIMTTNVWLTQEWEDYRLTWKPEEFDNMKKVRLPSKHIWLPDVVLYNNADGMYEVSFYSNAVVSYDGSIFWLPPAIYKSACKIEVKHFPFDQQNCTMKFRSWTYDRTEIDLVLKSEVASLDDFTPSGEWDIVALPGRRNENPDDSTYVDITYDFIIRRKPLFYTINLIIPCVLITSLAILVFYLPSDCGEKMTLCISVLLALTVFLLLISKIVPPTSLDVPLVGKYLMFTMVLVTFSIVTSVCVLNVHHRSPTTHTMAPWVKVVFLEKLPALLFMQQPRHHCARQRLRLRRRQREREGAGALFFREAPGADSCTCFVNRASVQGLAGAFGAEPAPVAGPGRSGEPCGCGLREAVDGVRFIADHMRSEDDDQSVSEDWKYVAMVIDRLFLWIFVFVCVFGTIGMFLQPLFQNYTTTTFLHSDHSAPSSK

Compound: Cc1ncccc1OC[C@@H]1CCCN1 [ABT-089, 2-methyl-3-(2-(S)-pyrrolidinylmethoxy)pyridine]
- agonist activity at NNRs expressed in vitro [1]: weak agonist activity
- Continuous Performance Test Attentiveness ([2]; 2 mg): 0.56±0.27
- Continuous Performance Test Attentiveness ([2]; 4 mg): 0.68±0.27
- Continuous Performance Test Attentiveness ([2]; 20 mg): 0.69±0.27
- information processing speed ([2]; 20 mg): 516.3±12.7
- Continuous Performance Test number of commission errors ([2]; all ABT-089 dose levels): statistically significant improvement
- measures of attention (reaction time, vigilance), episodic secondary memory, executive function (Stroop Effect) vs placebo ([2]; in vivo): no meaningful differences
- Cavg Mean (±SD), model-predicted, steady state ([3]; 2 mg bid): 4.47 (1.05) ng/mL
- Ctrough Mean (±SD), model-predicted, steady state ([3]; 2 mg bid): 1.85 (0.79) ng/mL
- Cavg Mean (±SD), model-predicted, steady state ([3]; 4 mg bid): 8.94 (2.09) ng/mL
- Ctrough Mean (±SD), model-predicted, steady state ([3]; 4 mg bid): 3.69 (1.59) ng/mL
- Cavg Mean (±SD), model-predicted, steady state ([3]; 20 mg bid): 44.7 (10.46) ng/mL
- Ctrough Mean (±SD), model-predicted, steady state ([3]; 20 mg bid): 18.46 (7.95) ng/mL
- Adverse event Headache, subjects reporting ([4]; 2 mg bid): 3
- Adverse event Increased appetite, subjects reporting ([4]; 2 mg bid): 0
- Adverse event Nervousness, subjects reporting ([4]; 2 mg bid): 1
- Adverse event Pain, subjects reporting ([4]; 2 mg bid): 0
- Adverse event Somnolence, subjects reporting ([4]; 2 mg bid): 0
- serious adverse events ([4]; 2 mg to 20 mg twice daily): no serious adverse events
- tolerability ([4]; 2 mg to 20 mg twice daily, 11 adult ADHD subjects): well tolerated
- Adverse event Headache, subjects reporting ([4]; 4 mg bid): 0
- Adverse event Increased appetite, subjects reporting ([4]; 4 mg bid): 0
- Adverse event Nervousness, subjects reporting ([4]; 4 mg bid): 0
- Adverse event Pain, subjects reporting ([4]; 4 mg bid): 0
- Adverse event Somnolence, subjects reporting ([4]; 4 mg bid): 0
- nausea, subjects ([4]; 4 mg dose): one subject
- Adverse event Headache, subjects reporting ([4]; 20 mg bid): 2
- Adverse event Nervousness, subjects reporting ([4]; 20 mg bid): 1
- Adverse event Pain, subjects reporting ([4]; 20 mg bid): 2
- Adverse event Somnolence, subjects reporting ([4]; 20 mg bid): 2
- laboratory findings, vital signs or ECG ([4]; during the study): no clinically meaningful findings or dose-related trends
- tolerability [5]: well tolerated
- Simple Reaction Time, a measure of attention ([5]; compared to placebo): significantly improved
- binding to human α4 β2 NNRs [6]: very selectively binds
- plasma levels associated with efficacy [7]: 5 to 15 ng/mL
